Values after ≈ are worked out from the molar mass of the structure shown. Like-named read-outs stand apart in the source and are kept apart here.
How the values were obtained:
Du145 prostate carcinoma = experiment: LDH cytotoxicity assay, Du145 cells; type: cell-based, human; settings: for mean percentage of dead Du145 cells: 10 μg/mL, 24 h of incubation; for IC50: Homo sapiens, DU-145, LDH assay
Excerpt: (§1) In the study, […] human cancer and normal cell lines were used. They were grouped as follows: prostate panel (prostate carcinoma Du145, derived from the metastatic site: brain, ATCC HTB-81; grade IV prostate carcinoma, PC3, derived from the metastatic site: bone, ATCC CRL-1435; prostate epithelial cells PNT2, ECACC 95012613), gastrointestinal panel (colorectal adenocarcinomas Caco2, ATCC HTB-37, and HT29, ATCC HTB-38; hepatocellular carcinoma HepG2, ATCC HB-8065), thyroid panel (follicular thyroid carcinoma FTC133, ECACC 94060901; undifferentiated thyroid carcinoma 8505C, ECACC 94090184). Cells were grown at 37 °C in a 5% CO2 atmosphere, with relative humidity, with culture medium DMEM/F12 (PC3, PNT2, FTC133, 8505C, HT29, and HepG2), DMEM low glucose (Du145), MEM with NEAA (Caco-2), supplemented with 10% fetal bovine serum (FBS), and appropriate antibiotics. Cells were seeded in 96-well plates (1.5 × 10^4 cells/well) and kept for 24 and 48 h. Subsequently, the culture medium was replaced with a fresh medium containing different concentrations of the tested substances from 4 to 50 µg/mL and the cells were incubated for 24 and 48 h. As a reference drug, doxorubicin was used. Cell viability was examined using the LDH assay, as previously described. The absorbance was measured at 490 nm (the reference wavelength 600 nm) with a Biotek Synergy microplate reader. Each experiment was performed in triplicate. Cytotoxicity of the samples was measured using the formula: %cytotoxicity=Asample−Aspont/Amax−Aspont×100 where: • Asample is the absorbance value for cells treated with the tested substances • Aspont is the value for spontaneous LDH release • Amax the value in cells lysed in the presence of Triton X100 • The half-maximal effective concentration value IC50, defined as the substance concentration necessary to obtain 50% of dead cells, was determined.
(§2) In the study evaluating optimization extraction conditions, the outlying values of rapanone amount in each set of parameters were removed. Thirty-two outlier values were determined using “Extreme Outlier” software (MP System Co., Kraków, Poland), with an algorithm implemented by Shoemaker and based on a robust technique proposed by Tukey. The ANOVA procedure was used to assess the impact of changing individual parameters on the amount of rapanone obtained in various extraction systems. The same statistical procedure was used to determine the regression coefficients of the primary parameters in the respective multinomial models (describing the relationship between the amount of rapanone and the experimental conditions) and to establish the statistical significance of these coefficients. […] The results with the highest number of differences were chosen as representing the combinations of parameters, (i.e., the particular variants of experimental systems), that were used giving the highest efficacy of the extraction process. IC50 values in cytotoxicity analysis were estimated using GraphPad 5 Prism. A comparison of the means in a cytotoxicity analysis was performed using one-way ANOVA followed by a posthoc Tukey test.

[1] = system: PNT2 prostate epithelial cells; experiment: LDH cytotoxicity assay, PNT2 cells; type: cell-based, human; settings: for mean percentage of dead PNT2 cells: 10 μg/mL, 24 h of incubation; for IC50: Homo sapiens, PNT2 normal prostate epithelial cells, LDH assay
Excerpt: as §1, §2

[2] = system: Caco-2 colorectal adenocarcinoma; experiment: LDH cytotoxicity assay, Caco-2 cells; type: cell-based, human; settings: for IC50: Homo sapiens
Excerpt: as §1, §2

[3] = system: PC3 grade IV prostate carcinoma; experiment: LDH cytotoxicity assay, PC3 cells; type: cell-based; settings: Homo sapiens
Excerpt: as §1, §2

PC3 = settings: cited from earlier work
[4] = system: undifferentiated thyroid carcinoma 8505C; experiment: LDH cytotoxicity assay, 8505C cells; type: cell-based; settings: Homo sapiens
Excerpt: as §1, §2

[5] = system: HT29 colorectal adenocarcinoma; experiment: LDH cytotoxicity assay, HT29 cells; type: cell-based; settings: Homo sapiens
Excerpt: as §1, §2

HT29 cells = settings: cited from earlier work
[6] = system: follicular thyroid carcinoma FTC133; experiment: LDH cytotoxicity assay, FTC133 cells; type: cell-based; settings: Homo sapiens
Excerpt: as §1
(§3) In the study evaluating optimization extraction conditions, the outlying values of rapanone amount in each set of parameters were removed. Thirty-two outlier values were determined using “Extreme Outlier” software (MP System Co., Kraków, Poland), with an algorithm implemented by Shoemaker and based on a robust technique proposed by Tukey. The ANOVA procedure was used to assess the impact of changing individual parameters on the amount of rapanone obtained in various extraction systems. The same statistical procedure was used to determine the regression coefficients of the primary parameters in the respective multinomial models (describing the relationship between the amount of rapanone and the experimental conditions) and to establish the statistical significance of these coefficients. […]

[7] = system: HepG2 hepatocellular carcinoma; experiment: LDH cytotoxicity assay, HepG2 cells; type: cell-based; settings: Homo sapiens
Excerpt: as §1, §3

[8] = design: method as in PMID 26252009; settings: EZ-CyTox kit, cell line not stated, cited from earlier work
Du145 = system: Du145; design: method as in earlier work; settings: castration-resistant prostate cancer cells Du145; read-out: IC50 inhibition of proliferation, Du145; cited from earlier work
[9] = Du145, 24 h incubation, read-out: IC50 Du145 24 h
[10] = 24 h incubation, read-out: IC50 PNT2 24 h
[11] = Caco-2, 24 h, Caco-2, 24 h incubation, read-out: IC50 Caco-2 24 h
[12] = PC-3, PC3, 24 h incubation, read-out: IC50 PC3 24 h
[13] = 24 h incubation, read-out: IC50 8505C 24 h
[14] = HT-29, HT29, 24 h incubation, read-out: IC50 HT29 24 h
[15] = Du145, 48 h incubation, read-out: IC50 Du145 48 h
[16] = 48 h incubation, read-out: IC50 PNT2 48 h
[17] = Caco-2, 48 h, Caco-2, 48 h incubation, read-out: IC50 Caco-2 48 h
[18] = FTC-133, FTC133, 24 h incubation, read-out: IC50 FTC133 24 h
[19] = FTC-133, FTC133, 48 h incubation, read-out: IC50 FTC133 48 h
[20] = PC-3, PC3, 48 h incubation, read-out: IC50 PC3 48 h
[21] = 48 h incubation, read-out: IC50 8505C 48 h
[22] = HepG2, 24 h incubation, read-out: IC50 HepG2 24 h
[23] = HepG2, 48 h incubation, read-out: IC50 HepG2 48 h
[24] = HT-29, HT29, 48 h incubation, read-out: IC50 HT29 48 h

COc1cccc2c1C(=O)c1c(O)c3c(c(O)c1C2=O)C[C@@](O)(C(=O)CO)C[C@@H]3O[C@H]1C[C@H](N)[C@H](O)[C@H](C)O1 [Doxorubicin]
mean percentage of dead Du145 cells (Du145 prostate carcinoma): 88.38% | IC50 (Du145 prostate carcinoma; [9]): 3.18 µg/mL | mean percentage of dead PNT2 cells [1]: 99.21% | IC50 [1, 10]: 1.38 µg/mL | IC50 [2, 11]: 3.44 µg/mL | IC50 [3, 12]: > 50 µg/mL | times lower activity towards PC3 than towards Du145 (PC3; doxorubicin, PC3 vs Du145): about 20 | IC50 [4, 13]: > 40 µg/mL | IC50 [5, 14]: 1.53 µg/mL

CCCCCCCCCCCC1=C(O)C(=O)C=C(O)C1=O [Embelin]
mean percentage of dead Du145 cells (Du145 prostate carcinoma): 61.67% | IC50 (Du145 prostate carcinoma; [9]): 8.02 µg/mL | IC50 (Du145 prostate carcinoma; [15]): 4.18 µg/mL | mean percentage of dead PNT2 cells [1]: 49.00% | IC50 [1, 10]: 10.1 µg/mL | IC50 [1, 16]: 4.61 µg/mL | IC50 [2, 11]: 6.12 µg/mL | IC50 [2, 17]: 3.37 µg/mL | IC50 in HT29 cells (Sumalatha) (HT29 cells; HT29): 35 µg/mL (≈ 119 µM) | IC50 [6, 18]: 10.5 µg/mL | IC50 [6, 19]: 6.48 µg/mL | IC50 [3, 12]: 9.27 µg/mL | IC50 [3, 20]: 5.24 µg/mL | IC50 (PC3; castration-resistant prostate cancer cells PC3, read-out: IC50 inhibition of proliferation, PC3): 13.6 µM | IC50 [4, 13]: 18.9 µg/mL | IC50 [4, 21]: 13.8 µg/mL | IC50 [7, 22]: 16 µg/mL | IC50 [7, 23]: 6.77 µg/mL | IC50 ([8]; 24 h, read-out: IC50 after 24 h (Park et al.)): > 200 µM | IC50 ([8]; 48 h, read-out: IC50 after 48 h (Park et al.)): 91.6 µM | IC50 (Du145): 21.3 µM | IC50 [5, 14]: 24.7 µg/mL | IC50 [5, 24]: 13.7 µg/mL

CCCCCCCCCCCCCC1=C(O)C(=O)C=C(O)C1=O [Rapanone]
mean percentage of dead Du145 cells (Du145 prostate carcinoma): 82.33% | IC50 (Du145 prostate carcinoma; [9]): 7.68 µg/mL | IC50 (Du145 prostate carcinoma; [15]): 5.07 µg/mL | mean percentage of dead PNT2 cells [1]: 9.30% | IC50 [1, 10]: 16.7 µg/mL | IC50 [1, 16]: 12.7 µg/mL | IC50 Caco-2 24 h ([2]; Caco-2, 24 h incubation): 8.79 µg/mL | IC50 [2, 11]: 8.76 µg/mL | IC50 [2, 17]: 5.66 µg/mL | IC50 reported by Cordero et al., converted (HT29 cells; HT29 (by context), 29.4 μM converted to μg/mL): 9.3 µg/mL (≈ 28.8 µM) | IC50 (HT29 cells; HT29 (by context), read-out: IC50 reported by Cordero et al.): 29.4 µM | IC50 [6, 18]: 6.01 µg/mL | IC50 [6, 19]: 4.42 µg/mL | IC50 [3, 12]: 6.5 µg/mL | IC50 [3, 20]: 4.92 µg/mL | IC50 [4, 13]: 7.84 µg/mL | IC50 [4, 21]: 5.5 µg/mL | IC50 [7, 22]: 36.3 µg/mL | IC50 [7, 23]: 16.7 µg/mL | IC50 [5, 14]: 16.9 µg/mL | IC50 [5, 24]: 11.7 µg/mL
